What is called EC50 is the concentration at which the effect is half-maximal. By CC50 is commonly meant the concentration giving 50% cytotoxicity. Low values mean harm at low concentration, high ones better tolerance by the cells.

In one series the test system is HCMV. Description: Anti-HCMV cytopathogenicity test (CPE inhibition). The class given is cell-based, human cytomegalovirus. As to conditions: for EC50: read-out: HCMV EC50; for SI HCMV (selectivity index): SI = CC50 (NHDF)/EC50 (HCMV). The protocol:
(§1) Anti-HCMV (Anti-human Cytomegalovirus) Cytopathogenicity Tests
(§2) The test compounds are employed as 50 millimolar (mM) solutions in dimethyl sulfoxide (DMSO). Ganciclovir®, Foscamet® and Cidofovir® are used as reference compounds. After the addition of 2 μl of the 50, 5, 0.5 and 0.05 mM DMSO stock solutions respectively to 98 μl portions of cell culture medium in row 2 A-H for duplicate determinations, 1:2 dilutions are carried out with 50 μl portions of medium up to row 11 of the 96-well plate. The wells in rows 1 and 12 each contain 50 μl of medium. 150 μl of a suspension of 1×10^4 cells (human prepuce fibroblasts [NHDF]) are then pipetted into each of the wells (row 1=cell control) and, in rows 2-12, a mixture of HCMV-infected and uninfected NHDF cells (M.O.I.=0.001-0.002), i.e. 1-2 infected cells per 1000 uninfected cells. Row 12 (without substance) serves as virus control. The final test concentrations are 250-0.0005 μM. The plates are incubated at 37° C./5% CO2 for 6 days, i.e. until all the cells in the virus controls are infected (100% cytopathogenic effect [CPE]). The wells are then fixed and stained by adding a mixture of formalin and Giemsa's dye (30 minutes), washed with double-distilled water and dried in a drying oven at 50° C. The plates are then assessed visually using an overhead microscope (plaque multiplier from Technomara).
(§3) The following data can be obtained from the test plates: • CC50 (NHDF)=substance concentration in μM at which no visible cytostatic effects on the cells are evident by comparison with the untreated cell control; • EC50 (HCMV)=substance concentration in μM which inhibits the CPE (cytopathic effect) by 50% compared with the untreated virus control; • SI (selectivity index)=CC50 (NHDF)/EC50 (HCMV).
On the technique in general: Damage to the host cells serves as the signal in cytopathic effect assays.

A short description of series [1]: Cytostatic effect on NHDF cells in the anti-HCMV cytopathogenicity test. The class given is cell-based. As to conditions: NHDF cells (human prepuce fibroblasts), 6 days incubation, visual assessment, concentration at which no visible cytostatic effects are evident vs untreated cell control. The protocol: as §1, §2, §3
Where [2] appears, read: Human betaherpesvirus 5, 144 h, HCMV-infected NHDF cells, M.O.I. 0.001-0.002, 6 days, 50% inhibition of CPE vs untreated virus control.

Structures can show the parent of a compound that is named as a salt. Where two headings read alike, the source gives them in different places.

In the case of `COc1c(N2C[C@@H](C)N[C@@H](C)C2)c(F)cc2c(=O)c(C(=O)NCc3ccc(Cl)cc3Cl)cn([C@@H]3C[C@@H]3F)c12` (mixture of isomers) [Example 16, N-(2,4-Dichlorobenzyl)-7-[(3RS,5SR)-3,5-dimethylpiperazin-1-yl]-6-fluoro-1-[(1R,2S)-2-fluorocyclopropyl]-8-methoxy-4-oxo-1,4-dihydroquinoline-3-carboxamide], the concentration giving a half-maximal response (EC50) in the series on HCMV (setting [2]) turned out to be 0.1 µM. For the same molecule, in the series on HCMV, the “SI HCMV (selectivity index)” value worked out at 78. This molecule showed a CC50 at 6 days in series [1] of 7.8 µM.
Taken in the same sequence, the figures for `COc1ccc(CNC(=O)c2cn(C3CC3)c3c(OC)c(N4C[C@@H](C)N[C@@H](C)C4)c(F)cc3c2=O)c(Cl)c1` [Example 22] were 0.38 µM, 22 and 8.4 µM.
Taken in the same sequence, the figures for `O=C(NCc1ccc(Cl)cc1Cl)c1cn(C2CC2)c2c(Cl)c(N3CCCN(CCO)CC3)c(F)cc2c1=O` [Example 1, 8-Chloro-1-cyclopropyl-N-(2,4-dichlorobenzyl)-6-fluoro-7-[4-(2-hydroxyethyl)-1,4-diazepan-1-yl]-4-oxo-1,4-dihydroquinoline-3-carboxamide] were 0.2 µM, 12.5 and 2.5 µM.
Taken in the same sequence, the figures for `COc1c(N2C[C@@H](C)N[C@@H](C)C2)c(F)cc2c(=O)c(C(=O)NCc3ccc(C(F)(F)F)cc3C)cn(C3CC3)c12` [Example 24] were 0.25 µM, 19 and 4.7 µM.
For the molecule `COc1c(N2C[C@@H](C)N(CC(N)=O)[C@@H](C)C2)c(F)cc2c(=O)c(C(=O)NCc3ccc(Cl)cc3Cl)cn(CC(F)(F)F)c12` [Example 53, {(2RS,6SR)-4-[3-{[(2,4-Dichlorobenzyl)amino]carbonyl}-6-fluoro-8-methoxy-4-oxo-1-(2,2,2-trifluoroethyl)-1,4-dihydroquinolin-7-yl]-2,6-dimethylpiperazin-1-yl}acetamide], the EC50 with HCMV (setting [2]) amounted to 0.01 µM. In the series on HCMV, the “SI HCMV (selectivity index)” value is recorded as 430. Also, the midpoint of cytotoxicity in series [1], the CC50 at 6 days, lay at 4.3 µM.
For `COc1c(N2C[C@@H](C)N[C@@H](C)C2)c(F)cc2c(=O)c(C(=O)NCc3ccc(Cl)cc3Cl)cn(CC(F)F)c12` [Example 35], in that order: 0.0365 µM, 138 and 4.8 µM.
For `COc1c(N2C[C@@H](C)N(CC(=O)N(C)C)[C@@H](C)C2)c(F)cc2c(=O)c(C(=O)NCc3ccc(Cl)cc3Cl)cn(CC(F)(F)F)c12` [Example 54], in that order: 0.0085 µM, 2471 and 21 µM.
On to `C[C@@H]1CN(c2c(F)cc3c(=O)c(C(=O)NCc4ccc(Cl)cc4Cl)cn(C4CC4)c3c2Cl)C[C@H](C)N1` [Example 5, 8-Chloro-1-cyclopropyl-N-(2,4-dichlorobenzyl)-7-[(3RS,5SR)-3,5-dimethylpipierazin-1-yl]-6-fluoro-4-oxo-1,4-dihydroquinoline-3-carboxamide], for which, in the series with HCMV (setting [2]), the concentration for a half-maximal effect (EC50) stood at 0.23 µM. Besides, in the series with HCMV, the “SI HCMV (selectivity index)” value worked out at 26. In series [1], this molecule showed a CC50 at 6 days of 6 µM.
For `COc1c(N2C[C@@H](C)N[C@@H](C)C2)c(F)cc2c(=O)c(C(=O)NCc3ccc(OC(F)(F)F)cc3C)cn(CC(F)(F)F)c12` [Example 52, 7-[(3RS,5SR)-3,5-Dimethylpiperazin-1-yl]-6-fluoro-8-methoxy-N-[2-methyl-4-(trifluoromethoxy)benzyl]-4-oxo-1-(2,2,2-trifluoroethyl)-1,4-dihydroquinoline-3-carboxamide], in that order: 0.019 µM, 405 and 7.7 µM.
For `COc1c(N2C[C@@H](C)N[C@@H](C)C2)c(F)cc2c(=O)c(C(=O)NCc3ccc(Cl)cc3Cl)cn(C3CCC3)c12` [Example 40], in that order: 0.11 µM, 100 and 11 µM.
For `COc1c(N2C[C@@H](C)N[C@@H](C)C2)c(F)cc2c(=O)c(C(=O)NCc3ccc(Cl)cc3Cl)cn(CCF)c12` [Example 28, N-(2,4-Dichlorobenzyl)-7-[(3RS,5RS-3,5-dimethyl)piperazin-1-yl]-6-fluoro-1-(2-fluoroethyl)-8-methoxy-4-oxo-1,4-dihydroquinoline-3-carboxamide hydroformate], in that order: 0.1 µM, 63 and 6.1 µM.
Take `COc1c(N2C[C@@H](C)N(C(=O)CN)[C@@H](C)C2)c(F)cc2c(=O)c(C(=O)NCc3ccc(Cl)cc3Cl)cn(C3CC3)c12` [Example 79, 1-Cyclopropyl-N-(2,4-dichlorobenzyl)-6-fluoro-7-[(3RS,5SR)-4-glycyl-3,5-dimethylpiperazin-1-yl]-8-methoxy-4-oxo-1,4-dihydroquinoline-3-carboxamide hydrochloride]: the EC50 in the series on HCMV (Human betaherpesvirus 5, NHDF, 144 h) worked out at 0.053 µM. For the same molecule, in the series with HCMV, the “SI HCMV (selectivity index)” value was found to be 145. It took 7.7 µM to reach half-maximal cytotoxicity in series [1] (CC50 at 6 days).
Consider `COc1c(N2CCN(CCC(N)=O)C(C)C2)c(F)cc2c(=O)c(C(=O)NCc3ccc(Cl)cc3Cl)cn(C3CC3)c12` (stereo not drawn) [Example 74], for which the EC50 with HCMV (setting [2]) was 0.092 µM. The “SI HCMV (selectivity index)” value in the series with HCMV is 28. The same molecule had a CC50 at 6 days in series [1] of 2.6 µM.
As for `COc1c(N2C[C@@H](C)N(C[C@@H](O)CO)[C@@H](C)C2)c(F)cc2c(=O)c(C(=O)NCc3ccc(Cl)cc3Cl)cn(C3CC3)c12` [Example 92], the EC50 in the series with HCMV (setting [2]) stood at 0.031 µM. Besides, the “SI HCMV (selectivity index)” value with HCMV came out at 171. Besides, in series [1], the cytotoxic concentration (CC50) at 6 days came to 5.3 µM.
For the molecule `COc1c(N2C[C@@H](C)N[C@@H](C)C2)c(F)cc2c(=O)c(C(=O)NCc3ccc(Cl)cc3Cl)cn([C@@H](C)C(F)(F)F)c12` [Example 45], in the series on HCMV (setting [2]), the EC50 was found to be 0.077 µM. Further, in the series with HCMV, the “SI HCMV (selectivity index)” value is 31. The molecule further yielded a CC50 at 6 days in series [1] of 2.4 µM.
Taken in the same sequence, the figures for `COc1c(N2C[C@@H](C)N[C@@H](C)C2)c(F)cc2c(=O)c(C(=O)NCc3ccc(OC(F)(F)F)cc3Cl)cn(CC(F)(F)F)c12` [Example 51] were 0.011 µM, 482 and 5.3 µM.
For `Cc1cc(Cl)ccc1CNC(=O)c1cn(C2CC2)c2c(Cl)c(N3CCN(CCOCCO)CC3)c(F)cc2c1=O` [Example 8, 8-Chloro-N-(4-chloro-2-methylbenzyl)-1-cyclopropyl-6-fluoro-7-{4-[2-(2-hydroxyethoxy)ethyl]piperazin-1-yl}-4-oxo-1,4-dihydroquinoline-3-carboxamide], in that order: 0.19 µM, 41 and 7.7 µM.
For `COc1c(N2C[C@@H](C)N(CC(=O)NS(C)(=O)=O)[C@@H](C)C2)c(F)cc2c(=O)c(C(=O)NCc3ccc(OC(F)(F)F)cc3C)cn(CC(F)(F)F)c12` [Example 68], in that order: 0.002 µM, 12000 and 24 µM.
For the molecule `COc1c(N2C[C@@H](C)N[C@@H](C)C2)c(F)cc2c(=O)c(C(=O)NCc3ccc(Cl)cc3Cl)cn([C@H]3C[C@H]3F)c12` [Example 34], the 50% effective concentration (EC50) in the series with HCMV (setting [2]) is 0.019 µM. In addition, the “SI HCMV (selectivity index)” value in the series with HCMV stood at 442. Besides, it took 8.4 µM to reach half-maximal cytotoxicity in series [1] (CC50 at 6 days).

Source of the values: patent US7867992B2, “Substituted quinolones” (AiCuris GmbH & Co. KG, priority 2004, dated 2011).
